In experiment [1] the target is KDR (phospho-KDR, VEGF165-stimulated HUVEC cells) (Homo sapiens (Human), UniProt P35968). Description: KDR autophosphorylation ELISA in HUVEC cells (Example G). The conditions noted are these: cellular activity; KDR autophosphorylation ELISA in HUVEC cells. It is filed as cell-based. The procedure, abridged: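 HUVECs were serum-starved 24 h, given compound as an 8-point dilution series (0.3% DMSO final) for 1 h, then stimulated with 100 ng/mL VEGF165 for 5 min. Lysate phospho-KDR was quantified by sandwich ELISA against a phospho-KDR standard, and IC50s came from a 4-parameter logistic fit.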
Sequence of KDR (phospho-KDR, VEGF165-stimulated HUVEC cells) (P35968 20-1356): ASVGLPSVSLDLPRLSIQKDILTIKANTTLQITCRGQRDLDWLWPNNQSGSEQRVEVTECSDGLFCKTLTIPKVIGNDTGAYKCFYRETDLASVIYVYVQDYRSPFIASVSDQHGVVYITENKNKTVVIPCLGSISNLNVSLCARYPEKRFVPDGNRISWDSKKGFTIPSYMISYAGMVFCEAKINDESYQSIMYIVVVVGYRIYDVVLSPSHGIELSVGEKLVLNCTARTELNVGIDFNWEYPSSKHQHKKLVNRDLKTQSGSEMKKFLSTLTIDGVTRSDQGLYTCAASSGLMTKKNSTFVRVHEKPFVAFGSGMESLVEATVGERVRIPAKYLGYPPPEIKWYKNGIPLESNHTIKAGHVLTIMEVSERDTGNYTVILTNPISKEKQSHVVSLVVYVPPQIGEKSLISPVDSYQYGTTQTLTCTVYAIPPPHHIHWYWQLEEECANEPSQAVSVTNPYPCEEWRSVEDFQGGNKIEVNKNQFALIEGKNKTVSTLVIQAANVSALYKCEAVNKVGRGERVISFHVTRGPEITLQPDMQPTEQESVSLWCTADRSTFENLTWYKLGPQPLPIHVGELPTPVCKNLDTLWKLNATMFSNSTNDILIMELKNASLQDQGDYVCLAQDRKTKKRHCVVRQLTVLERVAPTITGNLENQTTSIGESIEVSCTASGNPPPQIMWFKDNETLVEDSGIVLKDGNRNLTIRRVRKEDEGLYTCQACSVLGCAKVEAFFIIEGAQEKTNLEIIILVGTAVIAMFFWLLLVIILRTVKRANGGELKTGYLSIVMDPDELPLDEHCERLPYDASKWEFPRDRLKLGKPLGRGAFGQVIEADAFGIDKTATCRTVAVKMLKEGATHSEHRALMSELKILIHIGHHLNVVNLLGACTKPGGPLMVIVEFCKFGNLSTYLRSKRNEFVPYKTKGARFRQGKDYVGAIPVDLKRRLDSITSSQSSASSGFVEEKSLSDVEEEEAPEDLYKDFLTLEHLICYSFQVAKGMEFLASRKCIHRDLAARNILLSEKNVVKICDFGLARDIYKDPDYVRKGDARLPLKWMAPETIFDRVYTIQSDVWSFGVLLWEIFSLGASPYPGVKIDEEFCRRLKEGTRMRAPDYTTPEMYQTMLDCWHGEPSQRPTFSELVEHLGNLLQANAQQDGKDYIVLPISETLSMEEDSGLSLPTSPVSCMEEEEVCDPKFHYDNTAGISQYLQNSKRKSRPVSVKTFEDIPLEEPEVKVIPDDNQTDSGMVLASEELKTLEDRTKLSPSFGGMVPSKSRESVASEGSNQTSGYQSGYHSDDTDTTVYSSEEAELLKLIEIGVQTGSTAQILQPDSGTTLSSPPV

The target of experiment [2] is Human KDR (residues 790-1356) (Homo sapiens (Human), UniProt P35968). Description: Human KDR kinase assay, HTRF KinEase (Example B-2). The experiment is classed as biochemical. The procedure, abridged:
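Human KDR residues 790-1356 (0.1 ng/well) in buffer with 5 mM MgCl2, 1 mM MnCl2, 1 mM DTT, biotinylated peptide substrate, ATP at Km (4.0 μM), 3% DMSO, 10 compound concentrations; 40 min, room temperature. EDTA stop, streptavidin-XL665/Eu-TK antibody HTRF read 665/620 nm; 4-parameter IC50.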

[3] abbreviates: protocol of Example B-2 (other compounds).

Structures can show the parent of a compound that is named as a salt.

Sequence of Human KDR (residues 790-1356) (P35968 790-1356): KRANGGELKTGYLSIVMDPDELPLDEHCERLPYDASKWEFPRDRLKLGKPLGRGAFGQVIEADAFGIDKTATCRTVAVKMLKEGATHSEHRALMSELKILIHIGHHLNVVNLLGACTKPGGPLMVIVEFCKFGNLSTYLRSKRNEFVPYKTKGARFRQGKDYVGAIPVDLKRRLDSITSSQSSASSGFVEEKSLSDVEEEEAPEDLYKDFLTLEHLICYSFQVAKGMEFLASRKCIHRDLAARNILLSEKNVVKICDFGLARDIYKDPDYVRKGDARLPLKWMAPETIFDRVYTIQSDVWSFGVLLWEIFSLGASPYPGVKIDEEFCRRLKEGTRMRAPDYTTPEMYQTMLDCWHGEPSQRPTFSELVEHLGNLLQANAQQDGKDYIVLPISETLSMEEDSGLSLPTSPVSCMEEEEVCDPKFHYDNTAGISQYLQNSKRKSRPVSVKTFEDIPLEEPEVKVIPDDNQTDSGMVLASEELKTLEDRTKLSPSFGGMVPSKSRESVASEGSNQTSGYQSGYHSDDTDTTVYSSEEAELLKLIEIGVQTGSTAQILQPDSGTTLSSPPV

`COc1cc2nccc(Oc3ccc(NC(=O)c4c(C)nc(C)c(-c5ccc(F)cc5)c4O)cc3)c2nc1OC` [Compound 173, N-[4-[(6,7-Dimethoxy-1,5-naphthyridin-4-yl)oxy]phenyl]-5-(4-fluorophenyl)-4-hydroxy-2,6-dimethylpyridine-3-carboxamide]: the IC50 in experiment [1] and in experiment [2] (setting [3]) was less than 100 nM in each case.

For `COc1cc2nccc(Oc3ccc(NC(=O)c4cnc(C)c(-c5ccc(F)cc5C)c4O)cc3)c2nc1OC` [Compound 174, N-[4-[(6,7-Dimethoxy-1,5-naphthyridin-4-yl)oxy]phenyl]-5-(4-fluoro-2-methylphenyl)-4-hydroxy-6-methylpyridine-3-carboxamide], the 50% inhibitory concentration (IC50) in experiment [1] and in experiment [2] (setting [3]) was less than 100 nM in each case.

On to `COc1cnc2c(Oc3ccc(NC(=O)c4cnc(C)c(-c5ccc(F)cc5C)c4O)cc3F)ccnc2c1` [Compound 175, N-[3-Fluoro-4-[(7-methoxy-1,5-naphthyridin-4-yl)oxy]phenyl]-5-(4-fluoro-2-methylphenyl)-4-hydroxy-6-methylpyridine-3-carboxamide], for which the IC50 in experiment [1] was less than 100 nM; in experiment [2] (setting [3]), 100 to 300 nM.

Take `COc1cc2nccc(Oc3ccc(NC(=O)c4cnc(N)n(-c5ccc(F)cc5)c4=O)cc3F)c2nc1OC` [Compound 565, 2-Amino-N-[4-[(6,7-dimethoxy-1,5-naphthyridin-4-yl)oxy]-3-fluorophenyl]-1-(4-fluorophenyl)-6-oxopyrimidine-5-carboxamide]: the IC50 in experiment [1] and in experiment [2] (protocol of Example B-2) was less than 100 nM in each case.

Regarding `CCn1nc(C(=O)Nc2ccc(Oc3ccnc4cc(OC)c(OC)nc34)c(F)c2)c(=O)c(-c2ccc(F)cc2)c1C` [Compound 568, N-[4-[(6,7-Dimethoxy-1,5-naphthyridin-4-yl)oxy]-3-fluorophenyl]-1-ethyl-5-(4-fluorophenyl)-6-methyl-4-oxopyridazine-3-carboxamide], the IC50 in experiment [1] and in experiment [2] (protocol of Example B-2) was less than 100 nM in each case.

Take `Cc1ncc(C(=O)Nc2ccc(Oc3ccnc4cc(C(N)=O)cnc34)c(F)c2)c(O)c1-c1ccc(F)cc1` [Compound 577, 8-[2-Fluoro-4-[[5-(4-fluorophenyl)-4-hydroxy-6-methylpyridine-3-carbonyl]amino]phenoxy]-1,5-naphthyridine-3-carboxamide]: the IC50 in experiment [1] and in experiment [2] (protocol of Example B-2) was less than 100 nM throughout.

Regarding `CNC(=O)c1cnc2c(Oc3ccc(NC(=O)c4cnc(C)c(-c5ccc(F)cc5)c4O)cc3F)ccnc2c1` [Compound 578, 8-[2-Fluoro-4-[[5-(4-fluorophenyl)-4-hydroxy-6-methylpyridine-3-carbonyl]amino]phenoxy]-N-methyl-1,5-naphthyridine-3-carboxamide], the values for the IC50 in experiment [1] and in experiment [2] (protocol of Example B-2) were more than 300 nM and 100 to 300 nM, respectively.

Take `COc1cc2nccc(Oc3ccc(NC(=O)c4cn(C(C)C)c(C)c(-c5ccc(F)cc5)c4=O)cc3F)c2nc1N` [Compound 579, N-[4-[(6-Amino-7-methoxy-1,5-naphthyridin-4-yl)oxy]-3-fluorophenyl]-5-(4-fluorophenyl)-6-methyl-4-oxo-1-propan-2-ylpyridine-3-carboxamide]: the IC50 in experiment [1] and in experiment [2] (protocol of Example B-2) was more than 300 nM in each case.

For the molecule `COc1cc2nccc(Oc3ccc(NC(=O)c4cn(C(C)C)c(C)c(-c5ccc(F)cc5)c4=O)cc3F)c2nc1O` [Compound 580, N-[3-Fluoro-4-[(6-hydroxy-7-methoxy-1,5-naphthyridin-4-yl)oxy]phenyl]-5-(4-fluorophenyl)-6-methyl-4-oxo-1-propan-2-ylpyridine-3-carboxamide], the IC50 in experiment [1] and in experiment [2] (protocol of Example B-2) was more than 300 nM throughout.

For the molecule `COc1cc2nccc(Oc3ccc(NC(=O)c4cn(C(C)C)c(C)c(-c5ccc(F)cc5)c4=O)cc3F)c2nc1NS(C)(=O)=O` [Compound 581, N-[3-Fluoro-4-[[6-(methanesulfonamido)-7-methoxy-1,5-naphthyridin-4-yl]oxy]phenyl]-5-(4-fluorophenyl)-6-methyl-4-oxo-1-propan-2-ylpyridine-3-carboxamide], the IC50 in experiment [1] was more than 300 nM; in experiment [2] (protocol of Example B-2) it was less than 100 nM.

Turning to `CNc1nc2c(Oc3ccc(NC(=O)c4cn(C(C)C)c(C)c(-c5ccc(F)cc5)c4=O)cc3F)ccnc2cc1OC` [Compound 582, N-[3-Fluoro-4-[[7-methoxy-6-(methylamino)-1,5-naphthyridin-4-yl]oxy]phenyl]-5-(4-fluorophenyl)-6-methyl-4-oxo-1-propan-2-ylpyridine-3-carboxamide], the IC50 was 100 to 300 nM in experiment [1] and less than 100 nM in experiment [2] (protocol of Example B-2).

`COc1cc2nccc(Oc3ccc(NC(=O)c4cnc(C)c(-c5ccc(F)cc5)c4O)cc3F)c2nc1NS(C)(=O)=O` [Compound 584, N-[3-Fluoro-4-[[6-(methanesulfonamido)-7-methoxy-1,5-naphthyridin-4-yl]oxy]phenyl]-5-(4-fluorophenyl)-4-hydroxy-6-methylpyridine-3-carboxamide]: the IC50 in experiment [1] and in experiment [2] (protocol of Example B-2) was less than 100 nM each time.

For the molecule `CNc1c(-c2ccc(F)cc2)c(=O)c(C(=O)Nc2ccc(Oc3ccnc4cc(OC)cnc34)c(F)c2)cn1C` [Compound 585, N-[3-Fluoro-4-[(7-methoxy-1,5-naphthyridin-4-yl)oxy]phenyl]-5-(4-fluorophenyl)-1-methyl-6-(methylamino)-4-oxopyridine-3-carboxamide], the concentration for half-maximal inhibition (IC50) in experiment [1] and in experiment [2] (protocol of Example B-2) was more than 300 nM throughout.

Regarding `COc1cnc2c(Oc3ccc(NC(=O)c4cn(C)c(C#N)c(-c5ccc(F)cc5)c4=O)cc3F)ccnc2c1` [Compound 586, 6-Cyano-N-[3-fluoro-4-[(7-methoxy-1,5-naphthyridin-4-yl)oxy]phenyl]-5-(4-fluorophenyl)-1-methyl-4-oxopyridine-3-carboxamide], the IC50 in experiment [1] and in experiment [2] (protocol of Example B-2) was more than 300 nM in each case.

For the molecule `COc1cnc2c(Oc3ccc(NC(=O)c4cn(C)c(OC)c(-c5ccc(F)cc5)c4=O)cc3F)ccnc2c1` [Compound 587, N-[3-Fluoro-4-[(7-methoxy-1,5-naphthyridin-4-yl)oxy]phenyl]-5-(4-fluorophenyl)-6-methoxy-1-methyl-4-oxopyridine-3-carboxamide], the IC50 in experiment [1] and in experiment [2] (protocol of Example B-2) was more than 300 nM each time.

`CCc1nc2c(Oc3ccc(NC(=O)c4cn(C(C)C)c(C)c(-c5ccc(F)cc5)c4=O)cc3F)ccnc2cc1OC` [Compound 588, N-[4-[(6-Ethyl-7-methoxy-1,5-naphthyridin-4-yl)oxy]-3-fluorophenyl]-5-(4-fluorophenyl)-6-methyl-4-oxo-1-propan-2-ylpyridine-3-carboxamide]: the IC50 in experiment [1] and in experiment [2] (protocol of Example B-2) was more than 300 nM in each case.

Turning to `CCc1nc2c(Oc3ccc(NC(=O)c4cnc(C)c(-c5ccc(F)cc5)c4O)cc3F)ccnc2cc1OC` [Compound 589, N-[4-[(6-Ethyl-7-methoxy-1,5-naphthyridin-4-yl)oxy]-3-fluorophenyl]-5-(4-fluorophenyl)-4-hydroxy-6-methylpyridine-3-carboxamide], the IC50 in experiment [1] and in experiment [2] (protocol of Example B-2) was less than 100 nM each time.

For the molecule `Cc1cc(F)ccc1-c1c(C)ncc(C(=O)Nc2ccc(Oc3ccnc4cc(C(C)C)cnc34)c(F)c2)c1O` [Compound 593, 5-(4-Fluoro-2-methylphenyl)-N-[3-fluoro-4-[(7-propan-2-yl-1,5-naphthyridin-4-yl)oxy]phenyl]-4-hydroxy-6-methylpyridine-3-carboxamide], the values for the half-inhibitory concentration (IC50) in experiment [1] and in experiment [2] (protocol of Example B-2) were less than 100 nM and more than 300 nM, respectively.

Turning to `Cc1ncc(C(=O)Nc2ccc(Oc3ccnc4cc(C(C)C)cnc34)cc2)c(O)c1-c1ccc(F)cc1` [Compound 594, 5-(4-Fluorophenyl)-4-hydroxy-6-methyl-N-[4-[(7-propan-2-yl-1,5-naphthyridin-4-yl)oxy]phenyl]pyridine-3-carboxamide], the IC50 in experiment [1] was less than 100 nM; in experiment [2] (protocol of Example B-2), more than 300 nM.

`Cc1nc(C)c(-c2ccc(F)cc2)c(O)c1C(=O)Nc1ccc(Oc2ccnc3cc(C(C)C)cnc23)c(F)c1` [Compound 595, 5-(4-Fluorophenyl)-N-[3-fluoro-4-[(7-propan-2-yl-1,5-naphthyridin-4-yl)oxy]phenyl]-4-hydroxy-2,6-dimethylpyridine-3-carboxamide]: the IC50 is less than 100 nM in experiment [1] and 100 to 300 nM in experiment [2] (protocol of Example B-2).

Turning to `Cc1ncc(C(=O)Nc2ccc(Oc3ccnc4cc(C(C)C)cnc34)c(F)c2)c(O)c1-c1ccc(F)cc1` [Compound 596, 5-(4-Fluorophenyl)-N-[3-fluoro-4-[(7-propan-2-yl-1,5-naphthyridin-4-yl)oxy]phenyl]-4-hydroxy-6-methylpyridine-3-carboxamide], the half-inhibitory concentration (IC50) in experiment [1] was less than 100 nM; in experiment [2] (protocol of Example B-2), more than 300 nM.

For the molecule `Cc1nc(C)c(-c2ccc(F)cc2)c(O)c1C(=O)Nc1ccc(Oc2ccnc3cc(C(C)C)cnc23)cc1` [Compound 598, 5-(4-Fluorophenyl)-4-hydroxy-2,6-dimethyl-N-[4-[(7-propan-2-yl-1,5-naphthyridin-4-yl)oxy]phenyl]pyridine-3-carboxamide], the IC50 is less than 100 nM in experiment [1] and 100 to 300 nM in experiment [2] (protocol of Example B-2).

On to `Cc1ncc(C(=O)Nc2ccc(Oc3ccnc4cc(-c5cnn(C(F)F)c5)cnc34)c(F)c2)c(O)c1-c1ccc(F)cc1` [Compound 610, N-[4-[[7-[1-(Difluoromethyl)pyrazol-4-yl]-1,5-naphthyridin-4-yl]oxy]-3-fluorophenyl]-5-(4-fluorophenyl)-4-hydroxy-6-methylpyridine-3-carboxamide hydrochloride], for which the results for the IC50 in experiment [1] and in experiment [2] (protocol of Example B-2) were less than 100 nM and 100 to 300 nM, respectively.

The values are drawn from US12371428B2 (Exelixis, Inc., priority 2019, dated 2025).
